Assay results published in patent publication US8703805B2 (Exelixis Patent Company LLC, priority 2005, dated 2014).

system: LXRα and/or LXRβ; assay: LXR/LXRE co-transfection assay (luciferase reporter, CV-1 cells); assay type: cell-based, human; details: IC50 or EC50 for LXR (LXRα and/or LXRβ, not distinguished), tested as described in Example 109, CV-1 cells
How it was run: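 Transient co-transfection of CV-1 cells with full-length human LXRα or LXRβ plus RXRα expression plasmids and an LXREx1-Tk-luciferase reporter; compounds (10 μM screen, ≤1% DMSO) incubated 20 h at 37 °C. Luminescence read after lysis; EC50/IC50 from 8-point half-log curves, efficacy relative to a high control or DMSO.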

EC50 [µM]	Structure (SMILES)
< 1	CC(C)(O)c1nn(-c2ccc(-c3cccc(S(C)(=O)=O)c3)cc2Cl)c(-c2ccccc2C(F)(F)F)c1Cl [Example 1421, 2-(4-chloro-1-(3-chloro-3′-(methylsulfonyl)biphenyl-4-yl)-5-(2-(trifluoromethyl)phenyl)-1H-pyrazol-3-yl)propan-2-ol]
1 to 10	CC(C)(O)c1cc(-c2ccc(-c3cccc(S(C)(=O)=O)c3)s2)n(-c2cccc(C(F)(F)F)c2O)n1 [Example 1338, 2-[3-(1-hydroxy-1-methylethyl)-5-{5-[3-(methylsulfonyl)phenyl]-2-thienyl}-1H-pyrazol-1-yl]-6-(trifluoromethyl)phenol]
< 1	Cc1cc(-c2cccc(S(C)(=O)=O)c2)ccc1-n1nc(C(C)(C)O)cc1-c1c(Cl)cccc1Cl [Example 122, 2-(5-(2,6-dichlorophenyl)-1-(3-methyl-3′-(methylsulfonyl)biphenyl-4-yl)-1H-pyrazol-3-yl)propan-2-ol]
< 1	CC(C)(O)c1cc(-c2ccc(-c3cccc(S(C)(=O)=O)c3)cc2)n(-c2ccccc2Cl)n1 [Example 1219, 2-{1-(2-chlorophenyl)-5-[3′-(methylsulfonyl)biphenyl-4-yl]-1H-pyrazole-3-yl}propan-2-ol]
1 to 10	CC(C)(O)c1cc(-c2cccc(F)c2F)n(-c2ccc(-c3cccc(S(C)(=O)=O)c3)cc2F)n1 [Example 121, 2-(5-(2,3-difluorophenyl)-1-(3-fluoro-3′-(methylsulfonyl)biphenyl-4-yl)-1H-pyrazol-3-yl)propan-2-ol]
< 1	CC(C)(O)c1cc(-c2ccc(-c3cccc(S(C)(=O)=O)c3)s2)n(-c2cc(F)ccc2Cl)n1 [Example 1334, 2-[1-(2-chloro-5-fluorophenyl)-5-{5-[3-(methylsulfonyl)phenyl]-2-thienyl}-1H-pyrazol-3-yl]propan-2-ol]
< 1	Cc1cc(-c2cccc(S(C)(=O)=O)c2)ccc1-n1nc(C(C)(C)O)cc1-c1cccc(Cl)c1Cl [Example 136, 2-(5-(2,3-dichlorophenyl)-1-(3-methyl-3′-(methylsulfonyl)biphenyl-4-yl)1H-pyrazol-3-yl)propan-2-ol]
< 1	CC(C)(O)c1cc(-c2ccc(-c3cccc(S(C)(=O)=O)c3)s2)n(-c2ccc(F)cc2F)n1 [Example 1265, 2-[1-(2,4-difluorophenyl)-5-{5-[3-(methylsulfonyl)phenyl]-2-thienyl}-1H-pyrazol-3-yl]propan-2-ol]
< 1	Cc1cc(-c2cccc(S(C)(=O)=O)c2)ccc1-c1cc(C(C)(C)O)nn1-c1cccnc1C(F)(F)F [Example 1390, 2-(5-(3-methyl-3′-(methylsulfonyl)biphenyl-4-yl)-1-(2-(trifluoromethyl)pyridin-3-yl)-1H-pyrazol-3-yl)propan-2-ol]
< 1	Cc1cc(-c2cccc(S(C)(=O)=O)c2)ccc1-n1nc(C(C)(C)O)cc1-c1c(F)cccc1Cl [Example 115, 2-(5-(2-chloro-6-fluorophenyl)-1-(3-methyl-3′-(methylsulfonyl)biphenyl-4-yl)-1H-pyrazol-3-yl)propan-2-ol]
1 to 10	CC(C)(O)c1nn(-c2cnccc2C(F)(F)F)c(-c2ccc(-c3cccc(S(C)(=O)=O)c3)cc2)c1Cl [Example 109, 2-(4-chloro-5-(3′-(methylsulfonyl)biphenyl-4-yl)-1-(4-(trifluoromethyl)pyridin-3-yl)-1H-pyrazol-3-yl)propan-2-ol]
1 to 10	CC(C)(O)c1cc(-c2ccc(-c3cccc(S(C)(=O)=O)c3)cc2Cl)n(-c2cnccc2C(F)(F)F)n1 [Example 117, 2-(5-(3-chloro-3′-(methylsulfonyl)biphenyl-4-yl)-1-(4-(trifluoromethyl)pyridin-3-yl)-1H-pyrazol-3-yl)propan-2-ol]
< 1	CC(C)(O)c1cc(-c2ccc(-c3cccc(S(C)(=O)=O)c3)s2)n(-c2c(F)cccc2C(F)(F)F)n1 [Example 1353, 2-(1-[2-fluoro-6-(trifluoromethyl)phenyl]-5-{5-[3-(methylsulfonyl)phenyl]-2-thienyl}-1H-pyrazol-3-yl)propan-2-ol]
< 1	CC(C)(O)c1cc(-c2ccc(-c3cccc(S(C)(=O)=O)c3)s2)n(-c2cccnc2Cl)n1 [Example 1273, 2-[1-(2-chloropyridin-3-yl)-5-{5-[3-(methylsulfonyl)phenyl]-2-thienyl}-1H-pyrazol-3-yl]propan-2-ol]

The remaining lines, values behind:

Structure (SMILES)	EC50 [µM]
COC(=O)CCNC(=O)c1ccc(-c2cc(C(F)(F)F)nn2-c2ccccc2Cl)cc1 [Example 1356, methyl N-({4-[1-(2-chlorophenyl)-3-(trifluoromethyl)-1H-pyrazol-5-yl]phenyl}carbonyl)-beta-alaninate]	1 to 10
CC(C)(O)c1cc(-c2ccc(-c3ccc4cc[nH]c4c3)cc2)n(-c2ccccc2Cl)n1 [Example 1282, 2-{1-(2-chlorophenyl)-5-[4-(1H-indol-6-yl)phenyl]-1H-pyrazol-3-yl}propan-2-ol]	1 to 10
CCNC(=S)c1cc(-c2ccc(-c3cccc(S(C)(=O)=O)c3)s2)n(-c2ccccc2Cl)n1 [Example 1194, 1-(2-chlorophenyl)-N-ethyl-5-{5-[3-(methylsulfonyl)phenyl]-2-thienyl}-1H-pyrazole-3-carbothioamide]	< 1
CC(C)(O)c1cc(-c2ccc(-c3cccc(S(N)(=O)=O)c3)s2)n(-c2cc(Cl)ccc2Cl)n1 [Example 1214, 3-{5-[1-(2,5-dichlorophenyl)-3-(1-hydroxy-1-methylethyl)-1H-pyrazol-5-yl]-2-thienyl}benzenesulfonamide]	1 to 10
CS(=O)(=O)c1cc(-c2ccc(-c3cc(C(F)(F)F)nn3-c3cc(Cl)ccc3Cl)s2)ccc1OCCc1nnn[nH]1 [Example 1260, 5-(2-{[4-{5-[1-(2,5-dichlorophenyl)-3-(trifluoromethyl)-1H-pyrazol-5-yl]-2-thienyl}-2-(methylsulfonyl)phenyl]oxy}ethyl)-1H-tetrazole]	1 to 10
CC(C)(O)c1cc(-c2ccc(-c3cccc(C(F)(F)F)c3)cc2)n(-c2ccccc2Cl)n1 [Example 1287, 2-{1-(2-chlorophenyl)-5-[3′-(trifluoromethyl)biphenyl-4-yl]-1H-pyrazol-3-yl}propan-2-ol]	1 to 10
CC(C)(O)c1cc(-c2ccc(-c3cccc(NS(=O)(=O)C(F)(F)F)c3)cc2)n(-c2ccccc2Cl)n1 [Example 1310, N-{4′-[1-(2-chlorophenyl)-3-(1-hydroxy-1-methylethyl)-1H-pyrazol-5-yl]biphenyl-3-yl}-1,1,1-trifluoromethanesulfonamide]	1 to 10
CC(C)(O)c1nn(-c2ccc(-c3cccc(S(C)(=O)=O)c3)cc2Cl)c(-c2ccccc2Cl)c1Cl [Example 1423, 2-(4-chloro-1-(3-chloro-3′-(methylsulfonyl)biphenyl-4-yl)-5-(2-chlorophenyl)-1H-pyrazol-3-yl)propan-2-ol]	< 1
CC(C)(O)c1cc(-c2ccc(-c3cccc(OC(F)(F)F)c3)s2)n(-c2ccccc2Cl)n1 [Example 1274, 2-[1-(2-chlorophenyl)-5-(5-{3-[(trifluoromethyl)oxy]phenyl}-2-thienyl)-1H-pyrazol-3-yl]propan-2-ol]	1 to 10
CS(=O)(=O)CCNC(=O)c1ccc(-c2cc(C(F)(F)F)nn2-c2ccccc2Cl)cc1 [Example 1364, 4-[1-(2-chlorophenyl)-3-(trifluoromethyl)-1H-pyrazol-5-yl]-N-[2-(methylsulfonyl)ethyl]benzamide]	1 to 10
CCS(=O)(=O)c1cccc(-c2ccc(-c3cc(C(C)(C)C#N)nn3-c3ccccc3Cl)s2)c1 [Example 1180, 2-[1-(2-chlorophenyl)-5-{5-[3-(ethylsulfonyl)phenyl]-2-thienyl}-1H-pyrazol-3-yl]-2-methylpropanenitrile]	< 1
CC(C)(O)c1nn(-c2cccc(Cl)c2F)c(-c2ccc(-c3cccc(S(C)(=O)=O)c3)s2)c1Cl [Example 1366, 2-[4-chloro-1-(3-chloro-2-fluorophenyl)-5-{5-[3-(methylsulfonyl)phenyl]-2-thienyl}-1H-pyrazol-3-yl]propan-2-ol]	< 1
CC(=O)c1cc(-c2ccc(-c3cccc(S(=O)(=O)C(C)C)c3)s2)n(-c2ncccc2C(F)(F)F)n1 [Example 1183, 1-{5-(5-{3-[(1-methylethyl)sulfonyl)phenyl}-2-thienyl)-1-[3-(trifluoromethyl)pyridin-2-yl]-1H-pyrazol-3-yl}ethanone]	< 1
CC(C)(O)c1cc(-c2ccc(-c3cccc(S(C)(=O)=O)c3)cc2)n(-c2c(Cl)cccc2Cl)n1 [Example 133, 2-(1-(2,6-dichlorophenyl)-5-(3′-(methylsulfonyl)biphenyl-4-yl)-1H-pyrazol-3-yl)propan-2-ol]	< 1
CS(=O)(=O)c1cccc(-c2ccc(-c3cc(C(O)C(F)(F)F)nn3-c3ccccc3Cl)s2)c1 (stereo not drawn) [Example 1209, 1-[1-(2-chlorophenyl)-5-{5-[3-(methylsulfonyl)phenyl]-2-thienyl}-1H-pyrazol-3-yl]-2,2,2-trifluoroethanol]	< 1
CC(C)(O)c1cc(-c2ccc(-c3cccc(S(C)(=O)=O)c3)s2)n(-c2ccc(Cl)cc2)n1 [Example 1257, 2-[1-(4-chlorophenyl)-5-{5-[3-(methylsulfonyl)phenyl]-2-thienyl}-1H-pyrazol-3-yl]propan-2-ol]	1 to 10
CN1CCC(N(C(=O)c2ccc(-c3cc(C(F)(F)F)nn3-c3ccccc3Cl)cc2)C2CC2)CC1 [Example 1029, 4-[1-(2-chlorophenyl)-3-(trifluoromethyl)-1H-pyrazol-5-yl]-N-cyclopropyl-N-(1-methylpiperidin-4-yl)benzamide]	1 to 10
O=C(O)CCNC(=O)c1ccc(-c2cc(C(F)(F)F)nn2-c2ccccc2Cl)cc1 [Example 1363, N-({4-[1-(2-chlorophenyl)-3-(trifluoromethyl)-1H-pyrazol-5-yl]phenyl}carbonyl)-beta-alanine]	1 to 10
CC(C)(O)c1nn(-c2ccccc2Cl)c(-c2ccc(-c3cccc(S(C)(=O)=O)c3)s2)c1F [Example 1319, 2-[1-(2-chlorophenyl)-4-fluoro-5-{5-[3-(methylsulfonyl)phenyl]-2-thienyl}-1H-pyrazol-3-yl]propan-2-ol]	< 1
